As a reminder, the ED50 is the midpoint of the dose-response relation.

The test system of assay [1] is HT-29 human colon cancer xenograft. The experiment in a line: Anti-tumor effects in human colon cancer HT-29 xenograft with/without CPT-11. Type of assay: in vivo, Balb/c nu/nu mice. The protocol:
IKKβ inhibitor has been reported to repress the HT-29 tumor growth when in combination with CPT-11 (Lagadec P, Griessinger E, Nawrot M P, et al. Br. J. Cancer (2008) 98, 335-344). The anti-tumor effect of the compound is then examined in a human colon cancer HT-29 xenograft in combination with CPT-11. The compound is tested for its anti-tumor effects in a human colon cancer HT-29 xenograft with/without the co-administration of CPT-11 essentially as described in a method reported in the literature (Lagadec P, Griessinger E, Nawrot M P, et al. Br. J. Cancer (2008) 98, 335-344).
The HT-29 human colorectal adenocarcinoma cell line is obtained from ATCC and cultured in McCoy's 5a medium containing 10% fetal calf serum. Male Balb/c nu/nu mice (6-7 weeks old) are injected subcutaneously in the right lateral flank with 0.1 mL of cell suspension containing 3.0×10^6 cells. Mice are divided into six groups, seven days after cell implantation. The test compound is orally administered twice a day at 60 and 20 mg/kg. CPT-11 at 20 mg/kg is peritoneally administered twice a week. In combination treatment, CPT-11 is given 1 h after the administration of the test compound. […] Two orthogonal diameters of the tumor are measured with digital vernier calipers three times a week. Tumor volume (TV) is measured and recorded during treatment period by the formula: TV=LengthxWidth^2/2. […]

Assay [2] relates to LPS-induced plasma IL-6 production. In words: LPS-induced plasma cytokine production in mouse, IL-6. As to conditions: oral 1 h before LPS 0.4 mg/kg i.p. Type of assay: in vivo, Balb/c mice. Here is the method:
Alternately, the compound is screened for its ability to inhibit the LPS-induced cytokine production in rat plasma according to the method reported in the literature (Ziegelbauer K, Gantner F, Lukacs N W, et al. Br J. Pharmacol. 2005,145(2):178-92). Briefly, Lewis rats (male, body weight 140 g-180 g) are used in the experiments. Animals (8/group) are given 1 to 100 mg/kg of the testing compound (suspension in 35% solutol & 60% PEG400 & 5% PG) or vehicle by oral gavage at 1 h prior to intraperitoneal administration of LPS 0.4 mg/kg. Ninety minutes after the intraperitoneal administration of LPS, blood is collected in heparin anticoagulated tubes to measure TNFα using R&D System ELISA Kit based on the general Kit protocols. The plasma sample is diluted 100 fold with the dilution buffer and 50 μL of diluted sample is used in each measurement. The plate is read on a SPECTRAMAX® M2e Plus Plate Reader and TNFα levels are analyzed based on the standard curve. The drug levels in plasma are measured with LC-MS-MS. […] Alternately, the compound is screened for its ability to inhibit the LPS-induced cytokine production in mouse plasma. Balb/c mice (female, body weight 18-20 g) are used in the experiments. […] The plate is read on a SPECTRMAX® M2e Plus Plate Reader and the data is analyzed using a standard curve.

Counter-ions that a name gives are not always drawn.

On to `O=C(NC1CC1)c1cccc2[nH]c(-c3nc(N[C@@H]4CCC[C@@H]4O)ncc3Cl)cc12` [Example 1, 2-{5-Chloro-2-[(1R,2S)-2-hydroxycyclopentylamino]pyrimidin-4-yl}-N-cyclopropyl-1H-indole-4-carboxamide hydrochloride], for which the “HT-29 tumor growth, combination with CPT-11” value in assay [1] (60 or 20 mg/kg p.o. + CPT-11 20 mg/kg i.p., P<0.05) is “enhances the anti-tumor effect of CPT-11”. Besides, the “HT-29 tumor growth, single agent” value in assay [1] (60 or 20 mg/kg, p.o., twice a day) is reported as “does not inhibit HT-29 tumor growth”. `Cl.O=C(NC1CC1)c1cccc2[nH]c(-c3nc(N[C@@H]4CCC[C@H]4O)ncc3Cl)cc12` [Example 2, 2-{5-Chloro-2-[(1R,2R)-2-hydroxycyclopentylamino]pyrimidin-4-yl}-N-cyclopropyl-1H-indole-4-carboxamide hydrochloride] returned an ED50 in assay [2] of 15.1 mg/kg.

The values are drawn from patent US8501166B2, “Pyrimidinyl indole compounds” (Hutchison Medipharma Limited, priority 2010, dated 2013).
